The values that follow come from PMC3639963, “A New Class of Small Molecule Inhibitor of BMP Signaling” (PLoS ONE, 2013).

Series [1] has as its system Activin A-induced P-Smad2 in HEK293 cells. Description: Activin A-induced P-Smad2, Western blot. In kind it is cell-based. The note with it: for inhibition of Smad2 phosphorylation: 0.5 µM, Activin A; for inhibition of Activin A-induced P-Smad2: qualitative. As to the method:
C2C12 and HEK293 cells were grown in DMEM supplemented with 10% FCS (PAA) and seeded at a density of 1 x 10^5 cells per well in 6-well plates. The next day the cells were starved in DMEM containing 1% FCS for 5 hours. Inhibitors were added at the indicated concentrations for 30 minutes followed by 10 ng/mL BMP4 (Peprotech), 100 ng/mL BMP6 (Peprotech), 100 ng/mL Activin A (Peprotech) or 2 ng/mL TGF-β1 (Cell Signaling) for 1 hour. Cells were washed in PBS and lysed on ice for 30 minutes in lysis buffer (20 mM Tris-HCl pH 7.5, 150 mM NaCl, 1% Triton X-100, 25 mM NaF, 25 mM Na β-glycerophosphate, 2 mM Na3VO4) containing protease inhibitors (Roche). Protein concentration in the clarified lysate was determined by Bradford Assay (Pierce) and 15 µg run on 4–12% Bis-Tris gel (Biorad). The protein was transferred onto nitrocellulose membrane (GE Healthcare) and probed with the relevant antibody at 4°C overnight (Cell Signaling: anti-Smad 1 (#9743), anti-P-Smad 1/5/8 (#9511), anti-Smad 2 (#5339), anti-P-Smad 2 (#3101). After subsequent incubation with HRP-conjugated anti-rabbit antibody, protein bands were detected using ECL (Pierce) and an LAS4000 image reader. Cells were purchased originally from the European Collection of Cell Cultures (ECACC) available through Sigma.

Series [2] concerns Tg(fli1a:eGFP) zebrafish embryos. The series can be described thus: Intersomitic vessel (ISV) formation in zebrafish embryos. The class given is in vivo. As to conditions: treated from 12 hpf, scored at 48 hpf. As to the method: The zebrafish colony was maintained as described and embryos were raised at 28.5°C. The Tg(BRE:mRFP) transgenic line (also called BRE-mRFP) has been described previously and expresses mRFP in response to BMP signaling. […] Inhibitor stocks were diluted in DMSO and then further diluted in fish water to give the required inhibitor concentrations. To minimize the amount of inhibitors used, experiments were performed in 24-well plates with approximately 20 embryos per well in a volume of 1 mL. The chemical treatment was applied by immersing 8- to 16-cell stage Tg(BRE:mRFP) embryos (dorsalization experiment) or 12 hours old […]) embryos (ISV experiment) in the fish water supplemented with DMSO or the chemical inhibitors. For the ISV experiment, embryos were manually dechorionated after bud stage before treatment. Embryos were scored and photographed at 26 or 48 hours.

For series [3], the target named is T1, ALK3 (Homo sapiens, UniProt P36894).
T1 construct: purchased Nanosyn (enzymatic panel); SGC in-house recombinant human kinases (DSF panel); Invitrogen (ALK1-6)
The series can be described thus: DSF thermal shift. In kind it is binding. As to conditions: 10 µM inhibitor; read-out: Tm shift. In a few lines:
(§1)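 Melting experiments ran on a qPCR machine using 1–2 µM purified recombinant human protein and 10 µM inhibitor.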

Series [4] deals with T2, TNIK (Homo sapiens, UniProt Q9UKE5).
T2 construct: purchased Nanosyn (enzymatic panel); SGC in-house recombinant human kinases (DSF panel); Invitrogen (ALK1-6)
The series can be described thus: DSF thermal shift. The class given is binding. The note with it: 10 µM inhibitor; read-out: Tm shift. The procedure, abridged:
as §1

Series [5] addresses T3, NEK1 (Homo sapiens, UniProt Q96PY6).
T3 construct: purchased Nanosyn (enzymatic panel); SGC in-house recombinant human kinases (DSF panel); Invitrogen (ALK1-6)
T3 sequence (Q96PY6 1-1258): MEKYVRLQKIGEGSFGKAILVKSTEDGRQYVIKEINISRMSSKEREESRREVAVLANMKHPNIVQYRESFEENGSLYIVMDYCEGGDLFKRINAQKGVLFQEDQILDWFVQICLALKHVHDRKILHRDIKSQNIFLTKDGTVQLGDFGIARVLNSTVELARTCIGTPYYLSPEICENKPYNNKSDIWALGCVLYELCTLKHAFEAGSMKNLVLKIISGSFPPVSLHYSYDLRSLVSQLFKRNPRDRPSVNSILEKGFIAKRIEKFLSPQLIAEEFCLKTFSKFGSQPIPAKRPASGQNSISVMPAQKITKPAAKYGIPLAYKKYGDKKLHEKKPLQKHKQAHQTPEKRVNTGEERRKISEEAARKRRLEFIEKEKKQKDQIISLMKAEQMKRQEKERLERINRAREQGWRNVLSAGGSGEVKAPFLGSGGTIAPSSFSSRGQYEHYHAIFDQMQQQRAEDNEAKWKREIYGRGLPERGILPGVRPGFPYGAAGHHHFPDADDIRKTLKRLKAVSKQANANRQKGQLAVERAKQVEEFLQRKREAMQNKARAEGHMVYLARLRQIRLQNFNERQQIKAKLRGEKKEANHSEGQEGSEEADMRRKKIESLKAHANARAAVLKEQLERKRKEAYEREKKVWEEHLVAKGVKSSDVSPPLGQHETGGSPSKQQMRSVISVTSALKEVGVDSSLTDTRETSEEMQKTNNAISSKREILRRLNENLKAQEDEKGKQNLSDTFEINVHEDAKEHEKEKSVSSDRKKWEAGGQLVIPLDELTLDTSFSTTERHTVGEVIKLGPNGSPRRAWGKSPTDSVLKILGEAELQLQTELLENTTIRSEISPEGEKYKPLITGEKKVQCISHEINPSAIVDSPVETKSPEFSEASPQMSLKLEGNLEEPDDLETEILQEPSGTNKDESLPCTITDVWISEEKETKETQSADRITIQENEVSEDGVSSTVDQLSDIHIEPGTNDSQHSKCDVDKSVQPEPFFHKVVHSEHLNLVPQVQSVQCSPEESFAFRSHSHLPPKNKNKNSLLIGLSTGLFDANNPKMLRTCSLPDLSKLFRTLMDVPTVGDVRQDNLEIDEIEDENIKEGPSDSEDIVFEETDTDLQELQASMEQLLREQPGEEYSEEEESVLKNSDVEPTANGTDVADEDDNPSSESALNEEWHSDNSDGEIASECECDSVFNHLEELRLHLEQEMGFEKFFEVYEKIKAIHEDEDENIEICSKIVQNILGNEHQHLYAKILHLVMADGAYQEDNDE
The series can be described thus: DSF thermal shift. In kind it is binding. As to conditions: 10 µM inhibitor; read-out: Tm shift. The procedure, abridged:
as §1

The target of series [6] is T4, CDKL1 (Homo sapiens, UniProt Q00532).
T4 construct: purchased Nanosyn (enzymatic panel); SGC in-house recombinant human kinases (DSF panel); Invitrogen (ALK1-6)
Description: DSF thermal shift. In kind it is binding. As to conditions: 10 µM inhibitor; read-out: Tm shift. The procedure, abridged: as §1

The target of series [7] is T5, BMPRII (Homo sapiens, UniProt Q13873).
T5 construct: purchased Nanosyn (enzymatic panel); SGC in-house recombinant human kinases (DSF panel); Invitrogen (ALK1-6)
The series can be described thus: DSF thermal shift. The class given is binding. The note with it: 10 µM inhibitor; read-out: Tm shift. In a few lines: as §1

In series [8] the target is T6, DRAK1 (Homo sapiens, UniProt Q9UEE5).
T6 construct: purchased Nanosyn (enzymatic panel); SGC in-house recombinant human kinases (DSF panel); Invitrogen (ALK1-6)
The series can be described thus: DSF thermal shift. In kind it is binding. The note with it: 10 µM inhibitor; read-out: Tm shift. In a few lines:
as §1

The test system of series [9] is panel of 200 human kinases. Description: Kinome-wide selectivity, number of kinases inhibited. As to conditions: 1 µM inhibitor; 200 kinases. The class given is biochemical. As to the method:
Percentage inhibition was determined for each kinase at both 0.1 µM and 1 µM inhibitor concentration (supplemental Table S2). […]. […]. When visualized on a kinase phylogenetic tree, these were primarily clustered within the receptor tyrosine kinases (TKs) as well as the calmodulin-dependent kinases (CAMKs) (Figure 2C).
Inhibitor selectivity profiling against 200 human kinases at 0.1 and 1 µM inhibitor concentration was performed by Nanosyn (www.nanosyn.com).

Structures are written as SMILES. Entries after “also recorded” stand apart in the source; their conditions may differ.

T6 sequence (Q9UEE5 whole entry): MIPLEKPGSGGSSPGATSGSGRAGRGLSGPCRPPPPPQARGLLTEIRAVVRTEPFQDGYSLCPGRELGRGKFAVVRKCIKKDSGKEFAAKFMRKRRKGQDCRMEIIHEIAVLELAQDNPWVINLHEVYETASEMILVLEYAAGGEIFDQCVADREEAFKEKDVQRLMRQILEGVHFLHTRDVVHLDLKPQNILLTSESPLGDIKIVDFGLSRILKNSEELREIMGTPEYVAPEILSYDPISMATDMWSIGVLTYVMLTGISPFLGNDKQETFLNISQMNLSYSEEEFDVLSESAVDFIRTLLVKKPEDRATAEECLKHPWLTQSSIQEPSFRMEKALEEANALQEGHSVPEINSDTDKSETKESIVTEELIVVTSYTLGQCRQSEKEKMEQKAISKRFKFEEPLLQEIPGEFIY
T4 sequence (Q00532 whole entry): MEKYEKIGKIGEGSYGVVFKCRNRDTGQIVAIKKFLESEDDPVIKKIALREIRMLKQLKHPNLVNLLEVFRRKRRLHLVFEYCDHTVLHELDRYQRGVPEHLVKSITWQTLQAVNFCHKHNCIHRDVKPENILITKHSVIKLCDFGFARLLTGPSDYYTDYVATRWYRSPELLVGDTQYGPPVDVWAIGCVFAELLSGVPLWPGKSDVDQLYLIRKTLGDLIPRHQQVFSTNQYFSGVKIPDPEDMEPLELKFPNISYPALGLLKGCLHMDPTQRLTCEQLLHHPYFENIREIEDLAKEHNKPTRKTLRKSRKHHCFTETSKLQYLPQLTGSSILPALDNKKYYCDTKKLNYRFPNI
T2 sequence (Q9UKE5 whole entry): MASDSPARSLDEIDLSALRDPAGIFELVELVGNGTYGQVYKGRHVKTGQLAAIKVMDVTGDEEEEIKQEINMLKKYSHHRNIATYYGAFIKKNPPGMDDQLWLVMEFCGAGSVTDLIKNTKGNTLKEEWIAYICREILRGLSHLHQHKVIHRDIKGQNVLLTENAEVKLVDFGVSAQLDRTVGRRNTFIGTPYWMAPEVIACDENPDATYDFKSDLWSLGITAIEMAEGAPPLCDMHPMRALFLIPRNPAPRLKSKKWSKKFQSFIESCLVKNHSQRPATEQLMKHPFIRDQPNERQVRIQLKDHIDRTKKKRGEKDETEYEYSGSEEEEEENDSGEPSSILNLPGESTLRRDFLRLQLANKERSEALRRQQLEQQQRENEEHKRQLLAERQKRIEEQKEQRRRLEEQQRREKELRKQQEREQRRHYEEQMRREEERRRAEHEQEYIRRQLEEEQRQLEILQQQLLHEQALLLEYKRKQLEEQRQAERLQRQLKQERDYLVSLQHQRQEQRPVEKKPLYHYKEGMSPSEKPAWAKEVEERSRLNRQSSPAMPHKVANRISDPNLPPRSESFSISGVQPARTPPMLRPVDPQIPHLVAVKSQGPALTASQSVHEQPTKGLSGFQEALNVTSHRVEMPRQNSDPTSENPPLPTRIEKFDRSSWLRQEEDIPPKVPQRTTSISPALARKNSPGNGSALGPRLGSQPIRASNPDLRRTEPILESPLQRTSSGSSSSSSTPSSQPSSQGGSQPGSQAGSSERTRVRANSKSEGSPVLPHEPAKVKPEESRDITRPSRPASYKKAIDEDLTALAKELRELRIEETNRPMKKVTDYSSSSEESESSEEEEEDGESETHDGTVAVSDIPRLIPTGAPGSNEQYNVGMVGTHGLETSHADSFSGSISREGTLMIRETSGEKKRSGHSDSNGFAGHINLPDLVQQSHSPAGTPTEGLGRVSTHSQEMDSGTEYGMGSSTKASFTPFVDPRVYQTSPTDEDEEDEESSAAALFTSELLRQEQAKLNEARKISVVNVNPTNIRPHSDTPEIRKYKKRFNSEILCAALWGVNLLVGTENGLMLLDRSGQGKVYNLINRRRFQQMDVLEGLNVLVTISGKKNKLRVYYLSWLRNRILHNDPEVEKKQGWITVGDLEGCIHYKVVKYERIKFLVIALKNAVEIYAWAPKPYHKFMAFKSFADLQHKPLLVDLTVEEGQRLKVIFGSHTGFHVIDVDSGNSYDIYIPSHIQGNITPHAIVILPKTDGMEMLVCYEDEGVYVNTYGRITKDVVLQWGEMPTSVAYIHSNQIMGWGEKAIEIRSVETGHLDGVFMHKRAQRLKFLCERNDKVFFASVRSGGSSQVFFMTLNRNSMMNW
T5 sequence (Q13873 27-1038): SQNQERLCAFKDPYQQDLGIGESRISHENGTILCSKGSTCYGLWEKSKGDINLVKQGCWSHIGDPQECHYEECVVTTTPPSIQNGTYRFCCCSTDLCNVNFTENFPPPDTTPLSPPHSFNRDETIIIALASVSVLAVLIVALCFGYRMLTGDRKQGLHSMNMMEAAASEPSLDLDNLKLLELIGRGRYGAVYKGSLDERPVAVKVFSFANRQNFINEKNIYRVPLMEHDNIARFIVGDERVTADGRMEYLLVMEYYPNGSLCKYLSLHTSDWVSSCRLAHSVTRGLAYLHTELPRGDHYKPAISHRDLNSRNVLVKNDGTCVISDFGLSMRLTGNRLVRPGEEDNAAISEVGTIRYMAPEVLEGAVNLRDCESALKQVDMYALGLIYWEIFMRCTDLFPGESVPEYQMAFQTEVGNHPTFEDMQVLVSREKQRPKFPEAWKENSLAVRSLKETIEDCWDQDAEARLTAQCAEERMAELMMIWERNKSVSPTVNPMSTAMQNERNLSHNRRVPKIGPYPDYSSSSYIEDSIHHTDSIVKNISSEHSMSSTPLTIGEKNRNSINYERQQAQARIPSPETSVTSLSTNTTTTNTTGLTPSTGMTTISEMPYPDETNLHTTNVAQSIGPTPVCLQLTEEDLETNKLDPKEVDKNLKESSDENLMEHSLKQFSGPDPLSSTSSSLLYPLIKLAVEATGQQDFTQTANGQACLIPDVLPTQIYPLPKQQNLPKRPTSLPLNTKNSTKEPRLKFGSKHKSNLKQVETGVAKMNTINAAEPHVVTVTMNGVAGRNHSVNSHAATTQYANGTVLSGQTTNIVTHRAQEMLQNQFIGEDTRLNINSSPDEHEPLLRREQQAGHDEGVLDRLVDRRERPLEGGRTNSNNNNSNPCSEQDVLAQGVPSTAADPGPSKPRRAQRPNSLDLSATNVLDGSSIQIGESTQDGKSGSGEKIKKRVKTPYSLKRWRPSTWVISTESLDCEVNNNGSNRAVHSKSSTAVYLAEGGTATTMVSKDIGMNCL
T1 sequence (P36894 24-532): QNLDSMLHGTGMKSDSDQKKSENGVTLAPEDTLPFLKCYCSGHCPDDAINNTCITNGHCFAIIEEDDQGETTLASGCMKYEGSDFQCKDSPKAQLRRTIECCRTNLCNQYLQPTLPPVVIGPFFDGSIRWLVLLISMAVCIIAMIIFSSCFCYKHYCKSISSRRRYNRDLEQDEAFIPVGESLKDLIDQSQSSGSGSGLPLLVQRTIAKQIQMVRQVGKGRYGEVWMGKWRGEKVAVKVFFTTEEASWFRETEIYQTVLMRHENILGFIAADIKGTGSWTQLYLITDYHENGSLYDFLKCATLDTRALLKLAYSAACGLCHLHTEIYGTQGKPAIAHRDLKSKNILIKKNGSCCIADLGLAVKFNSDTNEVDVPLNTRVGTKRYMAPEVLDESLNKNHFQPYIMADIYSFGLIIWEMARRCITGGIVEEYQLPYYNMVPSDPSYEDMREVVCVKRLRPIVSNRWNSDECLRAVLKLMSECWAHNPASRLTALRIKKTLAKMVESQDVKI

Turning to `COc1cc(-c2cc(-c3cccc(O)c3)cnc2N)cc(OC)c1OC` [K02288, 3-[6-amino-5-(3,4,5-trimethoxy-phenyl)-pyridin-3-yl]-phenol], the “inhibition of Smad2 phosphorylation” value in [1] is reported as “near complete inhibition”. The “inhibition of Activin A-induced P-Smad2” value in [1] is listed as “weakly inhibited”. The figures for the ISV formation phenotype result in series [2] (10 µM) and in series [2] (10–20 µM) were “no phenotype” and “no ISV defects”, respectively. Moreover, the ΔTm at 10 µM in series [3] amounted to 12.8 °C; in series [4], 6.1 °C; in series [5], 0.2 °C; in [6], 0 °C; in [7] it was 3.5 °C; in [8], 1 °C. Besides, the “further kinases with >50% inhibition (beyond ABL and ARG)” value in series [9] amounted to 6 kinases.
`c1cc(-c2cnn3cc(-c4ccc(OCCN5CCCCC5)cc4)cnc23)ccn1` [Dorsomorphin]: the ISV formation phenotype entry in series [2] (10 µM) is recorded as “defects in intersomitic vessel (ISV) formation”. For the same molecule, the ΔTm at 10 µM in [4] is 4.2 °C; in series [5] it was 0.1 °C; in series [6], 2 °C; in [7], 1.5 °C; in [8] it was 9 °C.
Take `c1ccc2c(-c3cnn4cc(-c5ccc(N6CCNCC6)cc5)cnc34)ccnc2c1` [LDN-193189]: in series [1], the “inhibition of Smad2 phosphorylation” value is “near complete inhibition” and the “inhibition of Activin A-induced P-Smad2” value was “weakly inhibited”. Further, the ISV formation phenotype entry in [2] (10 µM) is on record as “defects in intersomitic vessel (ISV) formation; also recorded: weak ISV defects”. In addition, in series [3], the ΔTm at 10 µM is 14 °C. Also, the ΔTm at 10 µM in [5] was determined as 0.2 °C. Further, the “number of kinases with >50% inhibition” value in [9] was 21 kinases.
